Test results taken from US11578087B2, “Oxaborole esters and uses thereof” (priority 2016, dated 2023).

Assays:
[1] = test system: T. cruzi amastigote (Td Tomato-modified) in Vero cells; test: In vitro IC50 measurement of T. cruzi amastigote killing using Td Tomato-modified T. cruzi; type: cell-based; details: Trypanosoma cruzi, 72 h, fluorescence, read-out: IC50: I Org. amastigote Growth T. cruzi 3 d
Procedure, shortened: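 Vero cells infected with Td Tomato-expressing T. cruzi, treated with compound at 5 uM to 5 nM final, incubated 72 h at 37 °C. Fluorescence (Ex 544/Em 612 nm) read at Day 0 and Day 3, Day 0 subtracted; IC50 and IC90 by nonlinear regression.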

[2] = test system: IL3000 T. congolense (drug sensitive) strain; test: In vitro Alamar Blue 72 h drug sensitivity assay for T. congolense; type: cell-based, Trypanosoma congolense; details: Trypanosoma congolense, 72 h, bloodstream form, 69 h + 3 h Resazurin, 34° C., read-out: IC50: I Org. Growth T. congolense 3 d
Procedure, shortened: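 Bloodstream-form trypanosomes in HMI medium with 20% bovine serum were exposed to compounds for 69 h at 34° C, 5% CO2, then resazurin for another 3 h. Fluorescence read at ex 536/em 588 nm; IC50 from 11-point sigmoidal dose-response curves, at least three independent runs.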

SMILES | IC50 [1] [nM] | IC50 [2] [nM]
Cc1c(C(=O)N[C@H](C(=O)OCc2cccc(C(F)(F)F)c2)C(C)C)ccc2c1B(O)OC2 [Example 6-046, 3-Trifluoromethylbenzyl (1-hydroxy-7-methyl-1,3-dihydrobenzo[c][1,2]oxaborole-6-carbonyl)-L-valinate] | ≤ 20 | < 0.5
Cc1c(C(=O)N[C@H](C(=O)OCc2nccc(C(F)(F)F)n2)C(C)C)ccc2c1B(O)OC2 [Example 6-203, (4-(trifluoromethyl)pyrimidin-2-yl)methyl (1-hydroxy-7-methyl-1,3-dihydrobenzo[c][1,2]oxaborole-6-carbonyl)-L-valinate] | ≤ 20 | < 0.5
Cc1c(C(=O)N[C@H](C(=O)OCc2ncc(F)cn2)C(C)C)ccc2c1B(O)OC2 [Example 6-202, (5-fluoropyrimidin-2-yl)methyl (1-hydroxy-7-methyl-1,3-dihydrobenzo[c][1,2]oxaborole-6-carbonyl)-L-valinate] | ≤ 20 | < 0.5
Cc1c(C(=O)NC2(C(=O)OCc3ccccn3)COC2)ccc2c1B(O)OC2 [Example 6-223, Pyridin-2-ylmethyl 3-(1-hydroxy-7-methyl-1,3-dihydrobenzo[c][1,2]oxaborole-6-carboxamido)oxetane-3-carboxylate] | 21 to 999 | 10 to 5000
Cc1c(C(=O)N[C@H](C(=O)OCc2cncc(N3CCOCC3)n2)C(C)C)ccc2c1B(O)OC2 [Example 6-193, (6-morpholinopyrazin-2-yl)methyl (1-hydroxy-7-methyl-1,3-dihydrobenzo[c][1,2]oxaborole-6-carbonyl)-L-valinate] | ≤ 20 | < 0.5
Cc1c(C(=O)N[C@H](C(=O)OCc2ccc(C(F)(F)F)cc2)C(C)C)ccc2c1B(O)OC2 [Example 6-041, 4-Trifluoromethylbenzyl (1-hydroxy-7-methyl-1,3-dihydrobenzo[c][1,2]oxaborole-6-carbonyl)-L-valinate] | ≤ 20 | < 0.5
Cc1c(C(=O)N[C@H](C(=O)OC2CCCCC2)C(C)C)ccc2c1B(O)OC2 [Example 6-133, Cyclohexyl (1-hydroxy-7-methyl-1,3-dihydrobenzo[c][1,2]oxaborole-6-carbonyl)-L-valinate] | ≤ 20 | < 0.5
Cc1c(C(=O)N[C@H](C(=O)OCc2cc(F)c(F)c(F)c2)C(C)C)ccc2c1B(O)OC2 [Example 6-100, 3,4,5-Trifluorobenzyl (1-hydroxy-7-methyl-1,3-dihydrobenzo[c][1,2]oxaborole-6-carbonyl)-L-valinate] | ≤ 20 | < 0.5
CC(C)[C@H](NC(=O)c1ccc2c(c1)B(O)OC2)C(=O)O[C@H](C)c1ccccc1 [Example 6-020, (R)-1-Phenylethyl (1-hydroxy-1,3-dihydrobenzo[c][1,2]oxaborole-6-carbonyl)-L-valinate] | ≥ 1000 | 10 to 5000
Cc1c(C(=O)N[C@H](C(=O)OCc2cc(F)c(F)c(F)c2)C(C)(C)O)ccc2c1B(O)OC2 [Example 6-101, 3,4,5-Trifluorobenzyl(S)-3-hydroxy-2-(1-hydroxy-7-methyl-1,3-dihydrobenzo[c][1,2]oxaborole-6-carboxamido)-3-methylbutanoate] | ≤ 20 | < 0.5
Cc1c(C(=O)N[C@H](C(=O)OC2CCN(C)CC2)C(C)C)ccc2c1B(O)OC2 [Example 6-142, 1-Methylpiperidin-4-yl (1-hydroxy-7-methyl-1,3-dihydrobenzo[c][1,2]oxaborole-6-carbonyl)-L-valinate] | 21 to 999 | < 0.5
Cc1c(C(=O)N[C@H](C(=O)OCc2ccc(C(=O)N3CCNCC3)cc2)C(C)C)ccc2c1B(O)OC2 [Example 6-102, 4-(Piperazine-1-carbonyl)benzyl (1-hydroxy-7-methyl-1,3-dihydrobenzo[c][1,2]oxaborole-6-carbonyl)-L-valinate] | ≥ 1000 | 10 to 5000
Cc1c(C(=O)N[C@H](C(=O)OCc2ccc3ccccc3n2)C(C)C)ccc2c1B(O)OC2 [Example 6-125, Quinolin-2-ylmethyl (1-hydroxy-7-methyl-1,3-dihydrobenzo[c][1,2]oxaborole-6-carbonyl)-L-valinate] | 21 to 999 | < 0.5
CCCc1c(C(=O)N[C@H](C(=O)OCc2ccccc2)C(C)C)ccc2c1B(O)OC2 [Example 6-065, Benzyl (1-hydroxy-7-propyl-1,3-dihydrobenzo[c][1,2]oxaborole-6-carbonyl)-L-valinate] | 21 to 999 | 0.51 to 9.99
Cc1c(C(=O)N[C@H](C(=O)OCc2ccc(F)cn2)C(C)C)ccc2c1B(O)OC2 [Example 6-067, (5-Fluoropyridin-2-yl)methyl (1-hydroxy-7-methyl-1,3-dihydrobenzo[c][1,2]oxaborole-6-carbonyl)-L-valinate] | ≤ 20 | < 0.5
C[C@H](NC(=O)c1ccc2c(c1)B(O)OC2)C(=O)O [Example 6-164, (1-Hydroxy-1,3-dihydrobenzo[c][1,2]oxaborole-6-carbonyl)-L-alanine] | ≥ 1000 | 10 to 5000
Cc1c(C(=O)NC2(C(=O)OCc3ccc(F)cc3)CCC2)ccc2c1B(O)OC2 [Example 6-066, 4-Fluorobenzyl 1-(1-hydroxy-7-methyl-1,3-dihydrobenzo[c][1,2]oxaborole-6-carboxamido)cyclobutane-1-carboxylate] | ≤ 20 | < 0.5
Cc1c(C(=O)N[C@H](C(=O)OCc2ccc([S+](C)[O-])cc2)C(C)C)ccc2c1B(O)OC2 (stereo partly drawn) [Example 6-090, 4-(Methylsulfinyl)benzyl (1-hydroxy-7-methyl-1,3-dihydrobenzo[c][1,2]oxaborole-6-carbonyl)-L-valinate] | 21 to 999 | 0.51 to 9.99
Cc1c(C(=O)N[C@H](C(=O)OCc2ccc(OCCN3CCCC3)c(Cl)c2)C(C)C)ccc2c1B(O)OC2 [Example 6-243, 3-Chloro-4-(2-(pyrrolidin-1-yl)ethoxy)benzyl (1-hydroxy-7-methyl-1,3-dihydrobenzo[c][1,2]oxaborole-6-carbonyl)-L-valinate] | 21 to 999 | 0.51 to 9.99
Cc1c(C(=O)N[C@H](C(=O)OCc2cccc(CN3CCOCC3)c2)C(C)C)ccc2c1B(O)OC2 [Example 6-083, 3-(Morpholinomethyl)benzyl (1-hydroxy-7-methyl-1,3-dihydrobenzo[c][1,2]oxaborole-6-carbonyl)-L-valinate] | ≤ 20 | < 0.5
Cc1c(C(=O)N[C@H](C(=O)OCc2ccc(F)c(F)c2)C(C)C)ccc2c1B(O)OC2 [Example 6-166, 3,4-Difluorobenzyl (1-hydroxy-7-methyl-1,3-dihydrobenzo[c][1,2]oxaborole-6-carbonyl)-L-valinate] | ≤ 20 | < 0.5
CCS(=O)(=O)c1ccc(COC(=O)[C@@H](NC(=O)c2ccc3c(c2C)B(O)OC3)C(C)C)cc1 [Example 6-093, 4-(Ethylsulfonyl)benzyl (1-hydroxy-7-methyl-1,3-dihydrobenzo[c][1,2]oxaborole-6-carbonyl)-L-valinate] | 21 to 999 | 0.51 to 9.99
Cc1c(C(=O)N[C@H](C(=O)OCc2ncc3ccccc3n2)C(C)C)ccc2c1B(O)OC2 [Example 6-137, Quinazolin-2-ylmethyl (1-hydroxy-7-methyl-1,3-dihydrobenzo[c][1,2]oxaborole-6-carbonyl)-L-valinate] | ≤ 20 | < 0.5
Cc1c(C(=O)N[C@H](C(=O)OCc2cccc(S(C)(=O)=O)c2)C(C)C)ccc2c1B(O)OC2 [Example 6-080, 3-(Methylsulfonyl)benzyl (1-hydroxy-7-methyl-1,3-dihydrobenzo[c][1,2]oxaborole-6-carbonyl)-L-valinate] | 21 to 999 | 0.51 to 9.99
Cc1c(C(=O)N[C@H](C(=O)OCC(F)(F)F)C(C)C)ccc2c1B(O)OC2 [Example 6-151, 2,2,2-Trifluoroethyl (1-hydroxy-7-methyl-1,3-dihydrobenzo[c][1,2]oxaborole-6-carbonyl)-L-valinate] | ≤ 20 | < 0.5
Cc1c(C(=O)N[C@H](C(=O)OCc2ccc(S(=O)(=O)N3CCN(C)CC3)cc2)C(C)C)ccc2c1B(O)OC2 [Example 6-085, 4-((4-Methylpiperazin-1-yl)sulfonyl)benzyl (1-hydroxy-7-methyl-1,3-dihydrobenzo[c][1,2]oxaborole-6-carbonyl)-L-valinate] | 21 to 999 | 0.51 to 9.99
CCc1c(C(=O)N[C@H](C(=O)OCc2ccc(S(C)(=O)=O)cc2)C(C)C)ccc2c1B(O)OC2 [Example 6-076, 4-(Methylsulfonyl)benzyl (7-ethyl-1-hydroxy-1,3-dihydrobenzo[c][1,2]oxaborole-6-carbonyl)-L-valinate] | 21 to 999 | 0.51 to 9.99
CCOc1c(C(=O)N[C@H](C(=O)OCc2ccccc2)C(C)C)ccc2c1B(O)OC2 [Example 6-192, Benzyl (7-ethoxy-1-hydroxy-1,3-dihydrobenzo[c][1,2]oxaborole-6-carbonyl)-L-valinate] | ≥ 1000 | 0.51 to 9.99
COC(=O)[C@@H](NC(=O)c1ccc2c(c1C)B(O)OC2)C(C)C [Example 6-069, Methyl (1-hydroxy-7-methyl-1,3-dihydrobenzo[c][1,2]oxaborole-6-carbonyl)-L-valinate] | 21 to 999 | 0.51 to 9.99
Cc1c(C(=O)N[C@H](C(=O)OCc2cc(C(F)(F)F)ncn2)C(C)C)ccc2c1B(O)OC2 [Example 6-161, (6-(trifluoromethyl)pyrimidin-4-yl)methyl (1-hydroxy-7-methyl-1,3-dihydrobenzo[c][1,2]oxaborole-6-carbonyl)-L-valinate] | ≤ 20 | < 0.5
